These results are taken from article PMC8869720, “A Sensitive Monoclonal-Antibody-Based ELISA for Forchlorfenuron Residue Analysis in Food Samples” (Biosensors, 2022).

In brackets after ≈: the same amount, converted by molar mass. Read-outs that look alike come from different tables or passages of the source.

One assay has as its system anti-CPPU mAb. As to the kind of experiment: optimized indirect competitive ELISA (icELISA) with anti-CPPU monoclonal antibody. The note with it: for Cross-Reactivity: CR (%) = IC50 CPPU/IC50 structural analogue × 100. Type of assay: binding, mouse. How it is done:
(§1) The icELISA protocol was performed as described previously. Briefly, 100 µL/well of coating antigen (1 µg/mL in CBS) was added to 96-well microtiter plates and stored at 37 °C overnight. The plate was rinsed twice with washing buffer and blocked by PBST containing 5% skimmed milk powder (120 µL/well) for 3 h at 37 °C. Then, the plate was rinsed twice and dried at 37 °C for 60 min. CPPU standard in PBS (50 µL) and the antibodies diluted in PBS (50 µL) were added and incubated at 37 °C for 40 min. After rinsing five times, the goat anti-mouse IgG-HRP was added (100 µL/well), followed by incubation for 30 min at 37 °C. After rinsing five times, the TMB solution (100 µL/well) was added and incubated for another 10 min at 37 °C. Stopping reagent (50 µL/well) was injected into each well to stop the chromogenic reaction, and the absorbance at 450 nm was measured using a microplate reader.
Many reports have shown that the immunoassay is an equilibrium binding reaction, and the experimental parameters used can affect the performance of the ELISA [28, 31, 32, 33]. In order to improve sensitivity of the established icELISA, the assay was optimized on concentrations of coating antigen and antibody, working buffer, and IgG-HRP dilution multiple. A standard curve for CPPU was obtained under optimal conditions by four-parameter sigmoidal fitting with Origin 9.0 software (OriginLab Corporation, Northampton, MA, USA). The IC10, IC20, IC50, and IC80 values correspond to the CPPU concentration levels that inhibit 10%, 20%, 50%, and 80% of the binding between mAb and the coating antigen, respectively. The IC10 value represents the LOD of the assay. The concentration levels from IC20 to IC80 are the linear range of the assay.
To evaluate the specificity of the mAb against CPPU, CR values with six structural analogs were chosen for evaluation. The CR values were calculated using Equation (1):CR (%) = IC50 CPPU/IC50 structural analogue × 100(1)
Background: In an ELISA, binding on a coated surface is turned into a signal by an enzyme label.

Assay [1] deals with mice antisera against CPPU. As to the kind of experiment: icELISA characterization of mice antisera: inhibition by CPPU. The class given is binding, mouse. The note with it: 1 μg/mL of competitor. How it is done: At the first immunization, each eight-week-old Balb/c female mouse was injected subcutaneously with 200 µL of an emulsion containing an equal volume of immunogen (1.0 mg/mL) and Freund’s complete adjuvant. In the subsequent booster immunizations, Freund’s incomplete adjuvant was substituted for Freund’s complete adjuvant and was injected at two-week intervals. After the third booster injection, the antisera were collected 7 days after each injection and checked by icELISA.
as §1

The test system of a further assay is antisera to CPPU. The arrangement: method as in PMID 18989973, PMID 20681638, PMID 22526663. The note with it: high-affinity antisera, Abad-Fuentes group; cited from earlier work.
The test system of assay [2] is rabbit polyclonal antibody. Details: method as in earlier work. To be noted: rabbit polyclonal antibody icELISA; cited from earlier work.
The test system of assay [3] is monoclonal antibody (mAb). The arrangement: method as in doi:10.14088/j.cnki.issn0439-8114.2016.21.037. To be noted: immunogen CPPU-H1-BSA, coating antigen CPPU-H2-OVA; cited from earlier work.
A further assay relates to monoclonal antibody. Details: method as in PMID 22526663. The note with it: previous mAb-based ELISA for CPPU; cited from earlier work.
The mark [4] stands for this setting: optimum conditions: coating antigen 250 ng/mL, antibody 1:8000 dilution, PBS, IgG-HRP 1:5000.

What is called IC50 is the concentration at which inhibition is half-maximal.

The compound `CN(C)C(=O)Nc1ccc(Cl)c(Cl)c1` [Diuron] registered a Cross-Reactivity in the assay on anti-CPPU mAb of 0.13%. Moreover, in the assay with anti-CPPU mAb (setting [4]), the IC50 came out at 0.82379 µg/mL.
For the compound `O=C(Nc1ccccc1)Nc1ccnc(Cl)c1` [CPPU, Forchlorfenuron], the “Inhibition of CPPU” value came out at 58.4% in assay [1] (immunogen CPPU-COOH-BSA, coating antigen CPPU-COOH-OVA); 55.6% in assay [1] (immunogen CPPU-COOH-KLH, coating antigen CPPU-COOH-BSA); 55.9% in assay [1] (immunogen CPPU-COOH-KLH, coating antigen CPPU-COOH-OVA); 83.3% in assay [1] (immunogen CPPU-COOH-THY, coating antigen CPPU-COOH-BSA); 82.9% in assay [1] (immunogen CPPU-COOH-THY, coating antigen CPPU-COOH-OVA). Also, the IC50 in the assay with antisera to CPPU was < 1 nM; in assay [2] it was 0.048 µg/mL (≈ 0.194 µM); in the assay with anti-CPPU mAb (IC50 1.04 ng/mL given in nM, read-out: IC50), 4.2 nM; in the assay on anti-CPPU mAb (setting [4]) it was 0.00104 µg/mL; in assay [3] it was 0.00389 µg/mL (≈ 0.0157 µM). Further, the LOD in assay [2] is given as 1 ng/mL. This compound displayed a Cross-Reactivity in the assay with anti-CPPU mAb of 100%. For the same compound, the “limit of detection (LOD, IC10)” value with anti-CPPU mAb (optimum conditions, IC10 value represents the LOD) came to 0.00016 µg/mL.
Take `Nc1c(Cl)c(Cl)nc(C(=O)O)c1Cl` [Picloram]: the Cross-Reactivity in the assay with anti-CPPU mAb amounted to 0.23%. The same compound had an IC50 in the assay with anti-CPPU mAb (setting [4]) of 0.45072 µg/mL.
For `Cc1ccc(NC(=O)N(C)C)cc1Cl` [Chlortoluron], in that order: 1.62% and 0.06434 µg/mL.
The corresponding values for `O=C(O)c1nc(Cl)ccc1Cl` [3,6-Dichloropicolinic] are 0.63% and 0.1662 µg/mL.
For `O=C(Nc1ccccc1)Nc1cnns1` [Thidiazuron (TDZ), Thidiazuron], the Cross-Reactivity was 5.36% with anti-CPPU mAb and “less than 6%” in the assay on anti-CPPU mAb (listed as TDZ). The IC50 in the assay with anti-CPPU mAb (setting [4]) worked out at 0.01942 µg/mL. In the assay with monoclonal antibody, the “cross-reactivity (CR)” value is 71%.
Consider `CON(C)C(=O)Nc1ccc(Cl)c(Cl)c1` [Linuron], for which, in the assay with anti-CPPU mAb, the Cross-Reactivity is given as 0.46%. This compound also showed an IC50 in the assay with anti-CPPU mAb (setting [4]) of 0.22643 µg/mL.
